Results published in ChEMBL document CHEMBL1142965, “(Aryloxyacetylamino)benzoic acid analogues: A new class of hypoxia-inducible factor-1 inhibitors” (J Med Chem, 2007).
Active and inactive are the calls of the source. The rule behind the calls is not given here.

Experiments:
[1] = biological target: Hypoxia inducible factors; HIF-1-alpha, HIF-2-alpha (Homo sapiens, UniProt Q16665+Q99814); experiment: Inhibition of hypoxia induced HIF1 transcriptional activity in human Hep3B cells by cell-based HRE reporter assay; assay type: functional; settings: hep 3b2
[2] = biological target: Hypoxia-inducible factor 1-alpha (Homo sapiens) (UniProt Q16665); experiment: Inhibition of hypoxia-induced HIF1-alpha accumulation in human Hep3B cells; assay type: functional, cell-based; settings: Hep 3B2
Chain of Hypoxia-inducible factor 1-alpha (Homo sapiens) (Q16665 whole entry, looked up): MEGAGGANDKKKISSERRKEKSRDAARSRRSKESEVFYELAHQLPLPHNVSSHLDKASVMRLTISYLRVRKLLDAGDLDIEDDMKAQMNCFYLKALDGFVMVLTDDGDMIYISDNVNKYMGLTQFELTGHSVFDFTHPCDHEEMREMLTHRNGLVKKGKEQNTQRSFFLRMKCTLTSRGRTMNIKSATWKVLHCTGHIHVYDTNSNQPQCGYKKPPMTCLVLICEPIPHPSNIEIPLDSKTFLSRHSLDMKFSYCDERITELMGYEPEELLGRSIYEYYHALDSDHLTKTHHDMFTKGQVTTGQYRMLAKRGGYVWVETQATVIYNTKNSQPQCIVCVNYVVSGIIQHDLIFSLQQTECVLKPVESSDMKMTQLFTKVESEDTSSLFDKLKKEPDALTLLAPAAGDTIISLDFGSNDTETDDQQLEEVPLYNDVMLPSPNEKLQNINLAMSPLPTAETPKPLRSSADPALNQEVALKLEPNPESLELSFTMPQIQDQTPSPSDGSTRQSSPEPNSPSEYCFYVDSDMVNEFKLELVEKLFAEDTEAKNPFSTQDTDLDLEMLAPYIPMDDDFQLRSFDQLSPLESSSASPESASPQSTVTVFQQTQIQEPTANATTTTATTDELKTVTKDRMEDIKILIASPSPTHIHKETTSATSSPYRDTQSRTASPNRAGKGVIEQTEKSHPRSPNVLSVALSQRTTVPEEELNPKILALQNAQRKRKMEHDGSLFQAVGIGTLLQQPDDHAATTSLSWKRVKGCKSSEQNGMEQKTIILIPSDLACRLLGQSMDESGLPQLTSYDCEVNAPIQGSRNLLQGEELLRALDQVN

[3] = test system: AGS; experiment: cells; settings: Homo sapiens
Description: Inhibition of hypoxia induced HIF1 transcriptional activity in human AGS cells by cell-based HRE reporter assay

[4] = Suppression of hypoxia-induced VEGF mRNA expression in human Hep3B cells; assay type: functional, cell-based; settings: Hep 3B2
[5] = Suppression of hypoxia-induced EPO mRNA expression in human Hep3B cells; assay type: functional, cell-based; settings: Hep 3B2
[6] = Suppression of hypoxia-induced VEGF mRNA expression in human Hep3B cells at 10 uM; assay type: functional, cell-based; settings: Hep 3B2
[7] = Suppression of hypoxia-induced EPO mRNA expression in human Hep3B cells at 10 uM; assay type: functional, cell-based; settings: Hep 3B2
[8] = Suppression of hypoxia-induced HIF1-alpha mRNA expression in human Hep3B cells; assay type: functional, cell-based; settings: Hep 3B2

IC50 [1] [µM]	IC50 [3] [µM]	SMILES	other results
0.4	0.35	O=C(COc1ccc(C23CC4CC(CC(C4)C2)C3)cc1)Nc1cc(C(=O)O)ccc1O	Activity [2]: Dose-dependent effect
> 30	9.5	O=C(COc1ccc(C23CC4CC(CC(C4)C2)C3)cc1)Nc1cccc(C(=O)Nc2ccc(Cl)cc2)c1	
2.6	0.7	COC(=O)c1ccc(O)c(NC(=O)COc2ccc(C34CC5CC(CC(C5)C3)C4)cc2)c1	Activity [2]: Dose-dependent effect; Activity [4]: Dose-dependent effect; Activity [5]: Dose-dependent effect; Activity [6]: Active; Activity [7]: Active; Activity [8]: inactive
> 30	10	O=C(COc1ccc(Cl)cc1)Nc1cccc(C(=O)O)c1	
> 30	> 30	Cc1ccc(OCC(=O)Nc2cccc(C(=O)O)c2)cc1	
9.9	7.4	COC(=O)c1cccc(NC(=O)COc2ccc(C34CC5CC(CC(C5)C3)C4)cc2)c1	
8.2	3.1	O=C(COc1ccc(C23CC4CC(CC(C4)C2)C3)cc1)Nc1cccc(C(=O)NCCc2ccncc2)c1	
> 30		O=C(COc1ccc(C23CC4CC(CC(C4)C2)C3)cc1)Nc1ccc(C(=O)O)cc1	
7.2	3.5	O=C(COc1ccc(I)cc1)Nc1cccc(C(=O)O)c1	
> 30	> 30	NC(=O)c1cccc(NC(=O)COc2ccccc2)c1	
> 30	3	CN(C)CCNC(=O)c1ccc(O)c(NC(=O)COc2ccc(C34CC5CC(CC(C5)C3)C4)cc2)c1	
10.5		O=C(COc1ccc(C23CC4CC(CC(C4)C2)C3)cc1)Nc1ccccc1C(=O)O	
> 30	35	COc1cccc(-c2ccc(OCC(=O)Nc3cccc(C(=O)O)c3)cc2)c1	
> 30	> 30	CC(C)(C)c1ccc(OCC(=O)Nc2cccc(C(N)=O)c2)cc1	
23.2	> 30	Cc1ccc(-c2ccc(OCC(=O)Nc3cccc(C(=O)O)c3)cc2)cc1	
> 30	> 30	CC(=O)c1ccc(OCC(=O)Nc2cccc(C(=O)O)c2)cc1	

IC50 [1] [µM]	IC50 [3] [µM]	SMILES	other results
> 30	> 30	O=C(COc1ccc(C23CC4CC(CC(C4)C2)C3)cc1)Nc1cccc(C(=O)Nc2ccc3ccccc3c2)c1	
> 30	> 30	CN(C)C(=O)c1ccc(O)c(NC(=O)COc2ccc(C34CC5CC(CC(C5)C3)C4)cc2)c1	
> 30	> 30	O=C(COc1ccc(F)cc1)Nc1cccc(C(=O)O)c1	
29	9.5	CC(C)(C)c1ccc(OCC(=O)Nc2cccc(C(=O)O)c2)cc1	
> 30	> 30	Cc1ccc(OCC(=O)Nc2cccc(C(N)=O)c2)cc1	
12.6	5.9	O=C(COc1ccc(C23CC4CC(CC(C4)C2)C3)cc1)Nc1cc(C(=O)NCc2ccco2)ccc1O	
> 30	1.6	O=C(COc1ccc(Br)cc1)Nc1cccc(C(=O)O)c1	
	2	OCc1ccc(-c2nn(Cc3ccccc3)c3ccccc23)o1	
> 30	> 30	O=C(COc1ccc(-c2cccs2)cc1)Nc1cccc(C(=O)O)c1	
5	2.5	O=C(COc1ccc(C23CC4CC(CC(C4)C2)C3)cc1)Nc1cccc(C(=O)O)c1	Activity [2]: Dose-dependent effect; Activity [4]: Dose-dependent effect; Activity [5]: Dose-dependent effect; Activity [8]: inactive
4.3	1	NC(=O)c1cccc(NC(=O)COc2ccc(C34CC5CC(CC(C5)C3)C4)cc2)c1	Activity [2]: Dose-dependent effect
> 30	> 30	O=C(COc1ccc(-c2cccc([N+](=O)[O-])c2)cc1)Nc1cccc(C(=O)O)c1	
> 30	> 30	O=C(COc1ccccc1)Nc1cccc(C(=O)O)c1	
> 30	> 30	NC(=O)c1cccc(NC(=O)COc2ccc([N+](=O)[O-])cc2)c1	
14.08	2.1	O=C(COc1ccc(C23CC4CC(CC(C4)C2)C3)cc1)Nc1cccc(C(=O)NCc2ccco2)c1	
> 30	1.5	NC(=O)c1ccc(O)c(NC(=O)COc2ccc(C34CC5CC(CC(C5)C3)C4)cc2)c1	
